According to ChEMBL document CHEMBL5338810, “Targeting Pancreatic Cancer with Novel Plumbagin Derivatives: Design, Synthesis, Molecular Mechanism, In Vitro and In Vivo Evaluation” (J Med Chem, 2023):
Calls of active or inactive are those of the source. The calls are words filed in the database; no cut-off is given here.

Key:
[1] = Selectivity ratio, ratio of IC50 for cytotoxicity against human PANC-1 cells in Dulbecco's modified Eagle's medium to PC50 for preferential cytotoxic activity against human PANC-1 cells in nutrient-deprived medium; assay type: functional
PANC-1 [2] = test: Preferential cytotoxic activity against human PANC-1 cells in nutrient-deprived medium assessed as reduction in cell viability incubated for 24 hrs by WST-8 cell counting analysis; assay type: functional
PANC-1 [3] = test: Cytotoxicity against human PANC-1 cells in Dulbecco's modified Eagle's medium assessed as reduction in cell viability incubated for 24 hrs by WST-8 cell counting analysis; assay type: functional, cell-based; conditions: PANC-1, 24 h
PANC-1 [4] = test: Disruption of plasma membrane integrity in human PANC-1 cells in nutrient-deprived medium assessed as leakage of cellular contents by measuring increase in red fluorescence at 1 uM incubated for 24 hrs by dual fluorescent staining based microscopic analysis; assay type: functional, cell-based
MIA PaCa-2 [5] = test: Antitumor activity against human MIA PaCa-2 cells xenografted in athymic BALB/c-nu mouse assessed as reduction in blood vessels at 50 to 250 ug, ip administered 5 times per week for 4 weeks; assay type: functional, organism-based; conditions: dose 50-250 µg
MIA PaCa-2 [6] = test: Antitumor activity against human MIA PaCa-2 cells xenografted in athymic BALB/c-nu mouse assessed as changes in gross appearance of tumor at 50 to 250 ug, ip administered 5 times per week for 4 weeks; assay type: functional, organism-based; conditions: dose 50-250 µg
PANC-1 [7] = test: Disruption of plasma membrane integrity in human PANC-1 cells in nutrient-deprived medium assessed as rupture of the cell membrane by measuring increase in red fluorescence at 1 uM incubated for 24 hrs by dual fluorescent staining based microscopic analysis; assay type: functional
MIA PaCa-2 [8] = test: Antitumor activity against human MIA PaCa-2 cells xenografted in athymic BALB/c-nu mouse assessed as reduction in average mean wet weight at 250 ug, ip administered 5 times per week for 4 weeks and measured on day 32 (reference value: 465.4 mg); assay type: functional; conditions: dose 250 µg
MIA PaCa-2 [9] = test: Antitumor activity against human MIA PaCa-2 cells xenografted in athymic BALB/c-nu mouse assessed as reduction in average mean wet weight at 50 ug, ip administered 5 times per week for 4 weeks and measured on day 32 (reference value: 465.4 mg); assay type: functional; conditions: dose 50 µg
MIA PaCa-2 [10] = test: Antitumor activity against human MIA PaCa-2 cells xenografted in athymic BALB/c-nu mouse assessed as reduction in mean tumor volume at 250 ug, ip administered 5 times per week for 4 weeks and measured on day 32 (reference value: 1642 mm3); assay type: functional; conditions: dose 250 µg
PANC-1 [11] = test: Disruption of plasma membrane integrity in human PANC-1 cells in nutrient-deprived medium assessed as membrane blebs by measuring increase in red fluorescence at 1 uM incubated for 24 hrs by dual fluorescent staining based microscopic analysis; assay type: functional, cell-based
PANC-1 [12] = test: Disruption of plasma membrane integrity in human PANC-1 cells in nutrient-deprived medium assessed as rounded cell morphology by measuring increase in red fluorescence at 1 uM incubated for 24 hrs by dual fluorescent staining based microscopic analysis; assay type: functional
MIA PaCa-2 [13] = test: Antitumor activity against human MIA PaCa-2 cells xenografted in athymic BALB/c-nu mouse assessed as reduction in mean tumor volume at 50 ug, ip administered 5 times per week for 4 weeks and measured on day 32 (reference value: 1642 mm3); assay type: functional; conditions: dose 50 µg
MIA PaCa-2 [14] = test: Antitumor activity against human MIA PaCa-2 cells xenografted in athymic BALB/c-nu mouse assessed as reduction in mean tumor volume at 250 ug, ip administered 5 times per week for 4 weeks and measured on day 18 (reference value: 447 mm3); assay type: functional; conditions: dose 250 µg
MIA PaCa-2 [15] = test: Antitumor activity against human MIA PaCa-2 cells xenografted in athymic BALB/c-nu mouse assessed as reduction in mean tumor volume at 50 ug, ip administered 5 times per week for 4 weeks and measured on day 18 (reference value: 447 mm3); assay type: functional; conditions: dose 50 µg
[16] = Toxicity in athymic BALB/c-nu mouse xenografted with human MIA PaCa-2 cells assessed as changes in abdominal organs at 50 to 250 ug, ip administered 5 times per week for 4 weeks; assay type: organism-based; conditions: in vivo, 672 h, dose 50-250 µg
[17] = Toxicity in athymic BALB/c-nu mouse xenografted with human MIA PaCa-2 cells assessed as survival at 50 to 250 ug, ip administered 5 times per week for 4 weeks; assay type: organism-based; conditions: in vivo, 672 h, dose 50-250 µg
[18] = Toxicity in athymic BALB/c-nu mouse xenografted with human MIA PaCa-2 cells assessed as changes in body weight at 50 to 250 ug, ip administered 5 times per week for 4 weeks and measured twice weekly; assay type: organism-based; conditions: in vivo, 672 h, dose 50-250 µg
[19] = Inhibition of PI3K/Akt/mTOR signaling pathway in human PANC-1 cells in nutrient-deprived medium assessed as redution in Akt phosphorylation at 0.5 to 10 uM incubated for 3 hrs by Western blotting analysis; assay type: cell-based; conditions: dose 0.5-10 µM
[20] = Inhibition of PI3K/Akt/mTOR signaling pathway in human PANC-1 cells in nutrient-deprived medium incubated for 3 to 6 hrs by Western blotting analysis; assay type: cell-based; conditions: dose 0.5-10 µM, time 3-6 hrs
[21] = Inhibition of PI3K/Akt/mTOR signaling pathway in human PANC-1 cells in nutrient-deprived medium at 0.5 to 10 uM by Western blotting analysis; assay type: cell-based; conditions: dose 0.5-10 µM, time 3-6 hrs, TDE = time-dependent effect

CCC1=CC(=O)c2c(OC)cccc2C1=O
Ratio [1]: 4.86
PC50 (PANC-1 [2]): 21.2 µM
IC50 (PANC-1 [3]): 103 µM

O=C1C(CC2CCCCC2)=CC(=O)c2c(O)cccc21
Activity (PANC-1 [4]): Active
Activity (MIA PaCa-2 [5]): Active
Activity (MIA PaCa-2 [6]): Active
Activity (PANC-1 [7]): Active
Activity (MIA PaCa-2 [8]): 107.6 mg
Activity (MIA PaCa-2 [9]): 205.8 mg
Activity (MIA PaCa-2 [10]): 446 mm3
Activity (PANC-1 [11]): Active
Activity (PANC-1 [12]): Active
Activity (MIA PaCa-2 [13]): 763 mm3
Activity (MIA PaCa-2 [14]): 166 mm3
Activity (MIA PaCa-2 [15]): 210 mm3
Activity [16]: Non-Toxic
Activity [17]: Non-Toxic
Activity [18]: Non-Toxic
inhibition [19]: Active
Ratio [1]: 429
inhibition [20]: Dose-Dependent Effect
inhibition [21]: Tde
PC50 (PANC-1 [2]): 0.11 µM
IC50 (PANC-1 [3]): 47.2 µM

CC1=CC(=O)c2c(O)cccc2C1=O [PLUMBAGIN]
Ratio [1]: 15.4
PC50 (PANC-1 [2]): 1.54 µM
IC50 (PANC-1 [3]): 23.7 µM

CCC1=CC(=O)c2ccccc2C1=O
Ratio [1]: 33.1
PC50 (PANC-1 [2]): 1.2 µM
IC50 (PANC-1 [3]): 39.7 µM

CCC1=CC(=O)c2c(O)cccc2C1=O
Ratio [1]: 21.6
PC50 (PANC-1 [2]): 1.46 µM
IC50 (PANC-1 [3]): 31.6 µM

O=C1C=C(CC2CCCCC2)C(=O)c2ccccc21
Ratio [1]: 69.9
PC50 (PANC-1 [2]): 0.96 µM
IC50 (PANC-1 [3]): 66.9 µM

O=C1C(CC2CCCC2)=CC(=O)c2c(O)cccc21
Ratio [1]: 21
PC50 (PANC-1 [2]): 0.4 µM
IC50 (PANC-1 [3]): 8.4 µM

CCCC1=CC(=O)c2ccccc2C1=O
Ratio [1]: 11
PC50 (PANC-1 [2]): 3.55 µM
IC50 (PANC-1 [3]): 39.1 µM

CCCC1=CC(=O)c2c(O)cccc2C1=O
Ratio [1]: 34.7
PC50 (PANC-1 [2]): 0.45 µM
IC50 (PANC-1 [3]): 15.6 µM

O=C1C(CC2CCCCCC2)=CC(=O)c2c(O)cccc21
Ratio [1]: 5.41
PC50 (PANC-1 [2]): 0.78 µM
IC50 (PANC-1 [3]): 4.22 µM

O=C1C=C(CC2CCCCC2)C(=O)c2c(O)cccc21
Ratio [1]: 42.9
PC50 (PANC-1 [2]): 0.74 µM
IC50 (PANC-1 [3]): 31.9 µM

CC(C)CC1=CC(=O)c2c(O)cccc2C1=O
Ratio [1]: 33.1
PC50 (PANC-1 [2]): 0.39 µM
IC50 (PANC-1 [3]): 12.9 µM

Cc1ccc(CC2=CC(=O)c3ccccc3C2=O)cc1
Ratio [1]: 16.3
PC50 (PANC-1 [2]): 4.67 µM
IC50 (PANC-1 [3]): 76.2 µM

O=C1C=C(Cc2cccc(Cl)c2)C(=O)c2ccccc21
Ratio [1]: 16.4
PC50 (PANC-1 [2]): 2.84 µM
IC50 (PANC-1 [3]): 46.7 µM

CCC1=CC(=O)c2cccc(O)c2C1=O
Ratio [1]: 8.2
PC50 (PANC-1 [2]): 1.05 µM
IC50 (PANC-1 [3]): 8.56 µM
